We go through 10 compounds from patent US4016159A, “Acylamino-cephem-carboxylic acids containing an amidino or guanidino group in the molecule” (Hoechst Aktiengesellschaft, priority 1973, dated 1977).

Type in all cases: cell-based
One assay deals with Proteus mirabilis. The experiment in a line: Minimum inhibition concentration (MIC), Table 2. As to conditions: Germ: Proteus mirabilis; read-out: Minimum inhibition concentration (MIC). From the text:
Minimum inhibition concentration (MIC) in /ml

Assay [1] concerns Staphylococcus aureus 285. The experiment in a line: Minimum inhibition concentration (MIC), Table 1. As to conditions: for MIC: Staphylococcus aureus, 285, Germ: Staphylococcus aureus 285, read-out: Minimum inhibition concentration (MIC). An excerpt: (§1) Minimum inhibition concentration (MIC) in γ/ml
Germ: Staphylococcus aureus 285

The next assay has as its system Streptococcus pyogenes A. The experiment in a line: Minimum inhibition concentration (MIC), Table 3. As to conditions: Germ: Streptococcus pyogenes A; for MIC: read-out: Minimum inhibition concentration MIC. An excerpt:
Minimum inhibition concentration MIC in γ/ml
Germ: Streptococcus pyogenes A

Assay [2] relates to Staphylococcus aureus SG 511. The experiment in a line: Minimum inhibition concentration (MIC), Table 5. To be noted: for MIC: Staphylococcus aureus, SG511, Germ: Staphylococcus aureus SG 511, read-out: Minimum inhibition concentration (MIC).
Source text: as §1
Germ: Staphylococcus aureus SG 511

The subject of the next assay is Streptococcus D. The experiment in a line: Minimum inhibition concentration (MIC), Table 4. To be noted: Germ: Streptococcus D; for MIC: Streptococcus, read-out: Minimum inhibition concentration (MIC).
Source text: as §1

SMILES strings stand for the structures. Converted amounts (≈) assume the structure as drawn.

Regarding `Cc1n[nH]c(SCC2=C(C(=O)O)N3C(=O)C(NC(=O)Cc4ccc(C(=N)N)cc4)C3SC2)n1` (stereo not shown) [Example 23, 3-[(5-methyl-1,2,4-triazole-3-yl)-thiomethyl]-7-(4-amidino-phenylacetamido)-Δ 3-cephem-4-carboxylic acid], the values for the MIC (in the assay on Proteus mirabilis; in assay [1]) were 25 µg/mL (≈ 51.3 µM) and 1.6 to 2.5 µg/mL (≈ 3.28 to 5.13 µM), respectively.

Turning to `Cc1nnc(SCC2=C(C(=O)O)N3C(=O)C(NC(=O)Cc4ccc(C5=NCCCN5)cc4)C3SC2)n1N` (stereo not shown) [Example 101, 3-[(4-amino-5-methyl-1,2,4-triazole-3-yl)-thiomethyl]-7-[4-(1,4,5,6-tetrahydropyrimide-2-yl)-phenylacetamido]-Δ3-cephem-4-carboxylic acid], the MIC with Proteus mirabilis is 25 µg/mL (≈ 46.1 µM); in assay [1], 0.5 to 1.25 µg/mL (≈ 0.921 to 2.3 µM).

As for `N=C(N)c1ccc(CC(=O)NC2C(=O)N3C(C(=O)O)=C(CSc4nc[nH]n4)CSC23)cc1` (stereo not shown) [Example 24, 3-[(1,2,4-triazole-3-yl)-thiomethyl]-7-(4-amidino-phenylacetamido)-Δ3-cephem-4-carboxylic acid], the figures for the MIC (with Proteus mirabilis; in assay [1]) were 25 µg/mL (≈ 52.8 µM) and 0.5 to 1.25 µg/mL (≈ 1.06 to 2.64 µM), respectively.

For the compound `Cc1csc(SCC2=C(C(=O)O)N3C(=O)C(NC(=O)COc4ccc(C(=N)N)cc4)C3SC2)n1` (stereo not shown) [Example 64, 3-[(4-methyl-1,3-thiazole-2-yl)-thiomethyl]-7-(4-amidinophenoxyacetamido)-Δ 3-cephem-4-carboxylic acid], the “Minimum inhibition concentration (MIC)” value in the assay on Streptococcus pyogenes A is 0.000391 to 0.0078 µg/mL; in assay [2] (Germ: Staphylococcus aureus SG 511) it was 0.0625 to 0.078 µg/mL; in assay [1] (Germ: Staphylococcus aureus 285), 0.5 to 1.25 µg/mL; in the assay with Streptococcus D it was 10 to 50 µg/mL.

Regarding `O=C(Cc1ccc(C2=NCCCN2)cc1)NC1C(=O)N2C(C(=O)O)=C(CSc3nnnn3-c3ccccc3)CSC12` (stereo not shown) [Example 71, 3-[(1-phenyl-1-H-tetrazole-5-yl)-thiomethyl]-7-[4-(1,4,5,6-tetrahydropyrimide-2-yl)-phenyl-acetamido]-Δ 3-cephem-4-carboxylic acid], the MIC with Streptococcus pyogenes A lay in the range of 0.000391 to 0.0078 µg/mL (≈ 0.000662 to 0.0132 µM); in assay [2], 0.0625 to 0.078 µg/mL (≈ 0.106 to 0.132 µM); in assay [1] it was 0.5 to 1.25 µg/mL (≈ 0.846 to 2.12 µM); in the assay on Streptococcus D it was 10 to 50 µg/mL (≈ 16.9 to 84.6 µM).

As to `CCCc1nnc(SCC2=C(C(=O)O)N3C(=O)C(NC(=O)COc4ccc(C(=N)N)cc4)C3SC2)s1` (stereo not shown) [Example 68, 3-[(5-n-propyl-1,3,4-thiadiazole-2-yl)-thiomethyl]-7-(4-amidinophenoxyacetamido)-Δ 3-cephem-4-carboxylic acid], the MIC was in the range of 0.008 to 0.0156 µg/mL (≈ 0.0146 to 0.0284 µM) with Streptococcus pyogenes A, 0.0625 to 0.078 µg/mL (≈ 0.114 to 0.142 µM) in assay [2], 0.5 to 1.25 µg/mL (≈ 0.911 to 2.28 µM) in assay [1] and 10 to 50 µg/mL (≈ 18.2 to 91.1 µM) in the assay with Streptococcus D.

`CCCc1csc(SCC2=C(C(=O)O)N3C(=O)C(NC(=O)Cc4ccc(C5=NCCN5)cc4)C3SC2)n1` (stereo not shown) [Example 114, 3-[(4-n-propyl-thiazole-2-yl)-thiomethyl]-7-[4-(imidazoline-2-yl)-phenylacetamido]-Δ3-cephem-4-carboxylic acid]: the MIC fell in the range of 0.000391 to 0.0078 µg/mL (≈ 0.000701 to 0.014 µM) in the assay with Streptococcus pyogenes A, 0.0625 to 0.078 µg/mL (≈ 0.112 to 0.14 µM) in assay [2], 0.156 to 0.391 µg/mL (≈ 0.28 to 0.701 µM) in assay [1] and 0.196 to 6.25 µg/mL (≈ 0.351 to 11.2 µM) in the assay with Streptococcus D.

As to `Cc1nsc(SCC2=C(C(=O)O)N3C(=O)C(NC(=O)Cc4ccc(C5=NCCCN5)cc4)C3SC2)n1` (stereo not shown) [Example 108, 3-[(3-methyl-1,2,4-thiadiazole-5-yl)-thiomethyl]-7-[4-(1,4,5,6-tetrahydropyrimide-22-yl)-phenylacetamido]-Δ3-cephem-4-carboxylic acid], the MIC with Streptococcus pyogenes A lay in the range of 0.000391 to 0.0078 µg/mL (≈ 0.000718 to 0.0143 µM); in assay [2] it was 0.0625 to 0.078 µg/mL (≈ 0.115 to 0.143 µM); in assay [1] it was 0.156 to 0.391 µg/mL (≈ 0.286 to 0.718 µM); with Streptococcus D, 10 to 50 µg/mL (≈ 18.4 to 91.8 µM).

For `O=C(Cc1ccc(C2=NCCCN2)cc1)NC1C(=O)N2C(C(=O)O)=C(CSc3ccc([N+](=O)[O-])cn3)CSC12` (stereo not shown) [Example 105, 3-[(5-nitropyridine-2-yl)-thiomethyl]-7-[4-(1,4,5,6-tetrahydropyrimide-2-yl)-phenylacetamido]-Δ3-cephem-4-carboxylic acid], the MIC in the assay on Streptococcus pyogenes A was 0.000391 to 0.0078 µg/mL (≈ 0.000688 to 0.0137 µM); in assay [2], 0.0625 to 0.078 µg/mL (≈ 0.11 to 0.137 µM); in assay [1] it was 0.156 to 0.391 µg/mL (≈ 0.274 to 0.688 µM); with Streptococcus D it was 10 to 50 µg/mL (≈ 17.6 to 87.9 µM).

On to `O=C(COc1ccc(C2=NCCCN2)cc1)NC1C(=O)N2C(C(=O)O)=C(CSc3nnc(-c4ccccc4)o3)CSC12` (stereo not shown) [Example 51, 3-[(5-phenyl-1,3,4-oxadiazole-2-yl)-thiomethyl]-7-[4-(1,4,5,6-tetrahydropyrimide-2-yl)-phenoxyacetamido]-Δ 3-cephem-4-carboxylic acid], for which the MIC was in the range of 0.000391 to 0.0078 µg/mL (≈ 0.000644 to 0.0129 µM) with Streptococcus pyogenes A, 0.0196 to 0.0391 µg/mL (≈ 0.0323 to 0.0644 µM) in assay [2], 0.156 to 0.391 µg/mL (≈ 0.257 to 0.644 µM) in assay [1] and 0.196 to 6.25 µg/mL (≈ 0.323 to 10.3 µM) in the assay with Streptococcus D.
